The source made the active and inactive calls.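 How the source made its calls: active means binding readouts below 60% of the midpoint between blocked and unblocked controls, with summed weighted score above 1; inactive means the rest.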

The subject of the experiment is 2C TCR mouse CD8+ T cells, vesicle binding, flow cytometry. As to the kind of experiment: inhibitors of CD8+ T cell LFA-1/ICAM-1 adhesion – powder samples, single concentration, mouse 2C TCR, flow cytometry, confirmation (AID 504568).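 On all read-outs here: lower values mean less vesicle binding and point to an inhibitor.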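 On double-positive events (T cell-vesicle binding): the gate for binding is set so anti-LFA-1 blocked control wells show 10% double positives.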 The note with it: stronger effect = lower value; for mean fluorescence percent response: measured here: CD8+ cell vesicle fluorescence mean.

Turning to `COc1cccc(NC(=O)Nc2ccc3nc(C)c(C)nc3c2)c1`, the double-positive events (T cell-vesicle binding) is 18.7% and the mean fluorescence percent response came to 113%.

Regarding `CCC1(C)NC(=O)N(CC(=O)N2N=C(c3ccccc3)CC2c2ccc(OC)cc2)C1=O` (centres undefined), the double-positive events (T cell-vesicle binding) is 24% (inactive) and the mean fluorescence percent response was determined as 144%.

For `CCCCn1nc(C(=O)N2CCN(S(=O)(=O)c3ccccc3)CC2)c2ccccc2c1=O`, the double-positive events (T cell-vesicle binding) was 28.1% (inactive) and the mean fluorescence percent response is 145%.

With `COc1ccc(S(=O)(=O)N2CCCC2C(=O)Nc2ccc(C(C)=O)cc2)cc1` (centres undefined), the double-positive events (T cell-vesicle binding) was 26.1% (inactive) and the mean fluorescence percent response was 142%.

As to `COc1ccc(N2CC(C(=O)NC(C)C(=O)NCc3ccccc3OC)CC2=O)cc1` (centres undefined), the double-positive events (T cell-vesicle binding) was 27.3% (inactive) and the mean fluorescence percent response is 177%.

For the compound `CCOC(=O)C1CCCN(S(=O)(=O)c2ccc(F)c(C(=O)Nc3ccc(F)c(F)c3)c2)C1` (centres undefined), the double-positive events (T cell-vesicle binding) was 22.4% and the mean fluorescence percent response is 162%.

In the case of `O=C(NCCN1CCN(c2ccccc2)CC1)c1cccc(Br)c1`, the double-positive events (T cell-vesicle binding) is 24.2% (inactive) and the mean fluorescence percent response came out at 152%.

`COc1ccc([N+](=O)[O-])cc1NC(=O)c1ccc(N(Cc2ccccc2C)S(C)(=O)=O)cc1`: the double-positive events (T cell-vesicle binding) is 23% and the mean fluorescence percent response came to 105%.

Consider `CC(=O)Nc1ccc(S(=O)(=O)NC2CCSc3ccccc32)cc1` (centres undefined), for which the double-positive events (T cell-vesicle binding) was 23.2% (inactive) and the mean fluorescence percent response came out at 120%.

On to `Cc1ccc(O)c(CCc2ccccc2)n1`, for which the double-positive events (T cell-vesicle binding) is 22.9% and the mean fluorescence percent response worked out at 120%.

Consider `CCOc1ccc(CCNC(=O)CCS(=O)(=O)c2ccc(C)cc2)cc1OCC`, for which the double-positive events (T cell-vesicle binding) was 23.5% and the mean fluorescence percent response is 117%.

For the compound `COc1ccc(Nc2ccccc2N)cc1`, the double-positive events (T cell-vesicle binding) is 32.7% (inactive) and the mean fluorescence percent response amounted to 138%.

Consider `CN(C)S(=O)(=O)c1cccc(-n2sc3ccccc3c2=O)c1`, for which the double-positive events (T cell-vesicle binding) is 17.7% and the mean fluorescence percent response was determined as 109%.

In the case of `CCCc1nnc(NC(=O)c2ccc(S(=O)(=O)N(C)c3ccccc3OC)cc2)s1`, the double-positive events (T cell-vesicle binding) was 26.1% (inactive) and the mean fluorescence percent response came to 131%.

As to `Cc1ccc(OCCOC(=O)c2cc(S(=O)(=O)N3CCCCC3)ccc2N2CCOCC2)cc1`, the double-positive events (T cell-vesicle binding) is 20.9% and the mean fluorescence percent response was found to be 134%.

As for `O=C(CS(=O)(=O)Cc1ccccc1)N1CCc2ccccc21`, the double-positive events (T cell-vesicle binding) is 25.6% (inactive) and the mean fluorescence percent response was determined as 159%.

As to `COc1ccc(/C=C2\SC(=S)N(CCC(=O)N3CCOCC3)C2=O)cc1`, the double-positive events (T cell-vesicle binding) was 22.1% and the mean fluorescence percent response turned out to be 102%.

`CC(Sc1nc2ccccc2[nH]1)C(=O)NC1CCCCC1C` (centres undefined): the double-positive events (T cell-vesicle binding) was 25.7% (inactive) and the mean fluorescence percent response came to 141%.

Consider `Cc1ccc(NC(=O)COC(=O)CCc2c[nH]c3ccccc23)c(C)c1`, for which the double-positive events (T cell-vesicle binding) is 25.1% and the mean fluorescence percent response was determined as 147%.

In the case of `CC(C)(C)NC(=O)COc1ccc(CNCc2cccnc2)cc1`, the double-positive events (T cell-vesicle binding) was 25.7% (inactive) and the mean fluorescence percent response is 148%.

Consider `COc1ccc(NC(=O)CSCC(=O)Nc2cccc(S(=O)(=O)N3CCCCCC3)c2)cc1`, for which the double-positive events (T cell-vesicle binding) was 21.7% and the mean fluorescence percent response stood at 136%.

As to `O=C(NCCC1=CCCCC1)C(=O)NCC(c1ccco1)N1CCN(c2ccccc2F)CC1` (centres undefined), the double-positive events (T cell-vesicle binding) is 26.1% (inactive) and the mean fluorescence percent response worked out at 116%.

On to `COc1ccc(NC(=O)CC2C(=O)N(Cc3ccccc3)C(=S)N2CCN2CCOCC2)cc1` (centres undefined), for which the double-positive events (T cell-vesicle binding) is 28.8% (inactive) and the mean fluorescence percent response came to 149%.

Turning to `Cc1ccc(Cn2c([N+](=O)[O-])cnc2C)cc1`, the double-positive events (T cell-vesicle binding) was 23.1% and the mean fluorescence percent response came out at 153%.

`Cc1cc(Cl)c(OCCCSc2nc(C)cc(=O)[nH]2)c(Br)c1`: the double-positive events (T cell-vesicle binding) is 25% and the mean fluorescence percent response was found to be 126%.

Consider `Cc1cccc(NC(=O)C2CCN(S(=O)(=O)c3c(C)[nH]c(=O)[nH]c3=O)CC2)c1`, for which the double-positive events (T cell-vesicle binding) was 27.4% (inactive) and the mean fluorescence percent response amounted to 161%.

Turning to `COc1ccc(C(O)c2coc3ccc(O)c(CN(C)C)c23)cc1` (centres undefined), the double-positive events (T cell-vesicle binding) is 21.7% (inactive) and the mean fluorescence percent response was 162%.

In the case of `COc1ccccc1NS(=O)(=O)c1cc(NC(=O)CNC(=O)c2cc(C)cc(C)c2)ccc1C`, the double-positive events (T cell-vesicle binding) is 27.3% (inactive) and the mean fluorescence percent response came to 153%.

With `Cc1ccc(S(=O)(=O)N2CCN(C(=O)CNC(=O)c3ccc(Cl)cc3)CC2)cc1`, the double-positive events (T cell-vesicle binding) is 29.6% (inactive) and the mean fluorescence percent response was 165%.

On to `NC(=O)C1CCN(c2nc(-c3cc4ccccc4o3)cs2)CC1`, for which the double-positive events (T cell-vesicle binding) was 26.2% (inactive) and the mean fluorescence percent response was 140%.

For `Cc1cc(=O)oc2c3c(cc(OCC(=O)NCc4ccncc4)c12)OC(C)(C)CC3`, the double-positive events (T cell-vesicle binding) was 20.8% and the mean fluorescence percent response came out at 128%.

As to `O=C(NNS(=O)(=O)c1ccc2ccccc2c1)c1cccs1`, the double-positive events (T cell-vesicle binding) is 23.5% (inactive) and the mean fluorescence percent response came to 149%.

Turning to `O=C1CC(c2nc3ccccc3[nH]2)CN1Cc1ccccc1` (centres undefined), the double-positive events (T cell-vesicle binding) was 22.6% and the mean fluorescence percent response was determined as 124%.

For the compound `CCN(CC)S(=O)(=O)c1ccc(Cl)c(NC(=O)COC(=O)C2CCCCC2)c1`, the double-positive events (T cell-vesicle binding) was 14.5% and the mean fluorescence percent response was 126%.

With `O=C(NCC1CCCCC1)c1ccc(Cl)c(S(=O)(=O)N2CCOCC2)c1`, the double-positive events (T cell-vesicle binding) is 17.8% and the mean fluorescence percent response stood at 136%.

Consider `Cc1ccccc1C(=O)NCC(=O)N1CCN(C/C=C/c2ccccc2)CC1`, for which the double-positive events (T cell-vesicle binding) is 21.8% and the mean fluorescence percent response was 150%.

Regarding `CCOc1ccc(-c2nc(N)ncc2-c2ccccc2)c(O)c1`, the double-positive events (T cell-vesicle binding) was 20.9% and the mean fluorescence percent response amounted to 126%.

Take `CCCCOc1ccc(C(=O)NCC(=O)N2CCN(C(=O)c3ccco3)CC2)cc1`: the double-positive events (T cell-vesicle binding) is 25.2% and the mean fluorescence percent response came to 133%.

In the case of `O=C(Cn1cc(C(F)(F)F)cc(Cl)c1=O)NCCc1ccc(Cl)cc1Cl`, the double-positive events (T cell-vesicle binding) is 26.4% (inactive) and the mean fluorescence percent response stood at 136%.

`Cc1ncc([N+](=O)[O-])n1Cc1cccc(F)c1`: the double-positive events (T cell-vesicle binding) was 28.5% (inactive) and the mean fluorescence percent response was found to be 152%.

As to `COCc1c(C(=O)Nc2cccc(S(=O)(=O)N3CCCCC3)c2)oc2ccccc12`, the double-positive events (T cell-vesicle binding) is 14.8% and the mean fluorescence percent response stood at 104%.

Take `c1ccc(COc2ccc(OCCN3CCCCC3)cc2)cc1`: the double-positive events (T cell-vesicle binding) was 20.7% and the mean fluorescence percent response was 133%.

For `CN(CC(=O)Nc1cc(S(=O)(=O)N2CCCC2)ccc1Cl)Cc1ccc2c(c1)OCO2`, the double-positive events (T cell-vesicle binding) was 20.9% and the mean fluorescence percent response amounted to 123%.

With `CCC(C(=O)Nc1ccccc1)c1ccccc1` (centres undefined), the double-positive events (T cell-vesicle binding) is 24.6% and the mean fluorescence percent response is 131%.

Take `CCN(CC)C(=O)N1CCN(S(=O)(=O)c2ccc(C)cc2)CC1`: the double-positive events (T cell-vesicle binding) was 26% (inactive) and the mean fluorescence percent response stood at 129%.

On to `CN(C)S(=O)(=O)c1ccc(C(=O)NCCc2ccco2)cc1`, for which the double-positive events (T cell-vesicle binding) was 22.8% and the mean fluorescence percent response is 122%.

For `COc1ccc(S(=O)(=O)N2CCCCC2)cc1NC(=O)c1cnc(C)cn1`, the double-positive events (T cell-vesicle binding) was 26.7% (inactive) and the mean fluorescence percent response stood at 173%.

Consider `Cc1cc(C)n(C(=O)c2sc3cc(F)ccc3c2Cl)n1`, for which the double-positive events (T cell-vesicle binding) was 24.5% and the mean fluorescence percent response turned out to be 90.2%.

In the case of `O=C(c1ccc(N2C(=O)C3CC=C(Cl)CC3C2=O)cc1)N1CCCCC1` (centres undefined), the double-positive events (T cell-vesicle binding) is 22.8% (inactive) and the mean fluorescence percent response amounted to 130%.

Regarding `CC(=O)c1ccc(-c2csc(N3CCC(C(N)=O)CC3)n2)cc1`, the double-positive events (T cell-vesicle binding) is 26.5% (inactive) and the mean fluorescence percent response is 153%.

`O=C(COC(=O)C12CC3CC(CC(Br)(C3)C1)C2)Nc1cccc(S(=O)(=O)N2CCOCC2)c1`: the double-positive events (T cell-vesicle binding) is 13.9% and the mean fluorescence percent response turned out to be 91.1%.

On to `CCOC(=O)c1c(N2C(=O)CC(Sc3ccccc3C(=O)O)C2=O)sc2c1CCCC2` (centres undefined), for which the double-positive events (T cell-vesicle binding) was 9.25% and the mean fluorescence percent response turned out to be 59.9%.

As for `CCOC(=O)c1ccc(NC(=O)CN2C(=O)NC3(CCCCCCC3)C2=O)cc1`, the double-positive events (T cell-vesicle binding) was 27.4% and the mean fluorescence percent response was found to be 149%.

With `Cc1ccc(S(=O)(=O)N2CCN(S(=O)(=O)N(C)C)CC2)c(C)c1`, the double-positive events (T cell-vesicle binding) was 24.7% and the mean fluorescence percent response is 139%.

As to `CN1CCN(S(=O)(=O)c2ccc(C(=O)Nc3ccccc3)cc2)CC1`, the double-positive events (T cell-vesicle binding) is 26.1% (inactive) and the mean fluorescence percent response is 138%.

Regarding `O=C(O)C1CCC(Cn2c(SCc3cc(=O)n4cc(Cl)ccc4n3)nc3ccsc3c2=O)CC1` (centres undefined), the double-positive events (T cell-vesicle binding) was 19.5% and the mean fluorescence percent response was 128%.

With `CCOC(=O)c1ccc(S(=O)(=O)N2CCN(C3CCCC3)CC2)cc1`, the double-positive events (T cell-vesicle binding) was 23% (inactive) and the mean fluorescence percent response is 155%.

For the origin of these results see PubChem BioAssay AID504568 (NMMLSC, 2011).
